Results published in patent publication US8026278B2, “Inhibitors of pyruvate kinase as therapeutic agents for cancer” (priority 2005, dated 2011).
Where a name gives a salt, the structure may show the parent alone. Read-outs that look alike come from different tables or passages of the source.

Legend:
[1] = tested on: MCF7 (breast) cancer cell line; assay: MTT assay, inhibition of cell proliferation, MCF7; type: cell-based; details: MCF7, 72 hours
Experimental: (§1) The compounds of the invention were tested for their inhibition potential of cell proliferation. MCF7 (breast) and SF268 (glioma) cancer cell lines were incubated with different concentrations of the compounds and their viability was assessed using an MTT (3-(4,5-dimethylthiazol-2-yl)-2,5-diphenyltetrazolium bromide) assay. The MTT assay is well known in the art (see for example Slater et al., Biochim. Biophys. Acta 77 (1963) 383). The cells were incubated with a given inhibitor for 72 hours and assayed.

[2] = target: T1, Pyruvate kinase isolated from rabbit muscle (Oryctolagus cuniculus, UniProt P11974); assay: Inhibition of pyruvate kinase (indirect assay quantifying ADP production); type: biochemical
T1 construct: Pyruvate kinase isolated from rabbit muscle; purchased Sigma-Aldrich; host or cells: rabbit muscle (tissue-derived enzyme)
T1 sequence (P11974 whole entry): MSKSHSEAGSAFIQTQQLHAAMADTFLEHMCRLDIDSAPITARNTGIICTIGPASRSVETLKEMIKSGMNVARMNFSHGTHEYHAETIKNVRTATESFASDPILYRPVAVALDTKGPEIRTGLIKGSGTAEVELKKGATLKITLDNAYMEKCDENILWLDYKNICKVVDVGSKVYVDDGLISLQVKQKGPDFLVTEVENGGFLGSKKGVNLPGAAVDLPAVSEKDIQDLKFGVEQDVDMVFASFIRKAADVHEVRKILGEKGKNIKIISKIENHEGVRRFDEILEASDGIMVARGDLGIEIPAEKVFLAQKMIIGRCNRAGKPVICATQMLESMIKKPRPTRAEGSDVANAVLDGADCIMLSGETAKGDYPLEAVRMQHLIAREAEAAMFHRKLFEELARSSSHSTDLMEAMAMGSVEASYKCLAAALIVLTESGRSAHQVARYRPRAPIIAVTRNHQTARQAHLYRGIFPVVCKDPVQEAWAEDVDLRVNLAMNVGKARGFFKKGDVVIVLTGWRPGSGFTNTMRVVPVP
Experimental: The compounds E-3-chlorophosphoenolpyruvate ditriethyl-ammonium salt (ECPDAT), Z-3-chlorophosphoenolpyruvate tritriethyl-ammonium salt (CPTP), phosphoenol-3-bromo-pyruvic acid mono-cyclohexyl ammonium salt (PBPA), 2-bromooxoethylphosphonic acid mono-cyclohexyl-ammonium salt (BOEPA) and 3-bromopyruvic acid (BrPyA) were tested for their efficiency at inhibiting pyruvate kinase. Pyruvate kinase isolated from rabbit muscle was purchased from Sigma-Aldrich. Pyruvate kinase was assayed indirectly by quantifying ADP production formed in the reaction ATP+pyruvate to ADP+phosphoenolpyruvate. Inhibitors were added to the reaction mixture immediately before the reaction was started by the addition of ATP.

[3] = tested on: SF268 (glioma) cancer cell line; assay: MTT assay, inhibition of cell proliferation, SF268; type: cell-based; details: SF268, 72 hours
Experimental: as §1

## O=C(CBr)P(=O)(O)O [BOEPA]
[1]
  Inhibition of cell proliferation: inhibited cell proliferation
[1]; 10 uM
  % (A-Blank relative to control): 93.37%
  A-Blank (Average-Blank) O.D. at 570 nm: 0.7642 O.D.
  Average O.D. reading at 570 nm: 0.8518 O.D.
[1]; 25 uM
  % (A-Blank relative to control): 93.769%
  A-Blank (Average-Blank) O.D. at 570 nm: 0.7675 O.D.
  Average O.D. reading at 570 nm: 0.855 O.D.
[1]; 50 uM
  % (A-Blank relative to control): 91.142%
  A-Blank (Average-Blank) O.D. at 570 nm: 0.746 O.D.
  Average O.D. reading at 570 nm: 0.8335 O.D.
[1]; 75 uM
  % (A-Blank relative to control): 93.28%
  A-Blank (Average-Blank) O.D. at 570 nm: 0.7635 O.D.
  Average O.D. reading at 570 nm: 0.851 O.D.
[1]; 100 uM
  % (A-Blank relative to control): 91.57%
  A-Blank (Average-Blank) O.D. at 570 nm: 0.7495 O.D.
  Average O.D. reading at 570 nm: 0.837 O.D.
[1]; 200 uM
  % (A-Blank relative to control): 89.249%
  A-Blank (Average-Blank) O.D. at 570 nm: 0.7305 O.D.
  Average O.D. reading at 570 nm: 0.818 O.D.
[1]; 300 uM
  % (A-Blank relative to control): 56.2004%
  A-Blank (Average-Blank) O.D. at 570 nm: 0.46 O.D.
  Average O.D. reading at 570 nm: 0.5475 O.D.
[1]; 500 uM
  % (A-Blank relative to control): 36.68%
  A-Blank (Average-Blank) O.D. at 570 nm: 0.3003 O.D.
  Average O.D. reading at 570 nm: 0.3877 O.D.
[2]
  inhibition at 0.1 µM: 0%
  inhibition at 1 µM: 0%
  inhibition at 10 µM: 0%
[3]
  Inhibition of cell proliferation: inhibited cell proliferation
[3]; 10 uM
  % (A-Blank relative to control): 101.2806%
  A-Blank (Average-Blank) O.D. at 570 nm: 0.692 O.D.
  Average O.D. reading at 570 nm: 0.7792 O.D.
[3]; 25 uM
  % (A-Blank relative to control): 99.49%
  A-Blank (Average-Blank) O.D. at 570 nm: 0.68 O.D.
  Average O.D. reading at 570 nm: 0.767 O.D.
[3]; 50 uM
  % (A-Blank relative to control): 100.8%
  A-Blank (Average-Blank) O.D. at 570 nm: 0.689 O.D.
  Average O.D. reading at 570 nm: 0.776 O.D.
[3]; 75 uM
  % (A-Blank relative to control): 96.52%
  A-Blank (Average-Blank) O.D. at 570 nm: 0.66 O.D.
  Average O.D. reading at 570 nm: 0.747 O.D.
[3]; 100 uM
  % (A-Blank relative to control): 90.45%
  A-Blank (Average-Blank) O.D. at 570 nm: 0.618 O.D.
  Average O.D. reading at 570 nm: 0.705 O.D.
[3]; 200 uM
  % (A-Blank relative to control): 53.055%
  A-Blank (Average-Blank) O.D. at 570 nm: 0.3625 O.D.
  Average O.D. reading at 570 nm: 0.4498 O.D.
[3]; 300 uM
  % (A-Blank relative to control): 12.221%
  A-Blank (Average-Blank) O.D. at 570 nm: 0.0835 O.D.
  Average O.D. reading at 570 nm: 0.1708 O.D.
[3]; 500 uM
  % (A-Blank relative to control): 5.196%
  A-Blank (Average-Blank) O.D. at 570 nm: 0.0355 O.D.
  Average O.D. reading at 570 nm: 0.1227 O.D.

## O=C(O)C(=O)CBr [BrPyA, 3-bromopyruvic acid, reference compound]
[2]; Concentration 0.1 mM
  inhibition at 100 µM: 0%
[2]; Concentration 1 mM
  inhibition at 1000 µM: 0%
[2]; Concentration 10 mM
  inhibition at 10000 µM: 10.9%
[2]; Concentration 100 mM
  inhibition at 100000 µM: 57.8%

## O=C(O)C(=CBr)OP(=O)(O)O [PBPA, phosphoenol-3-bromo-pyruvic acid mono-cyclohexyl ammonium salt]
[1]
  Inhibition of cell proliferation: inhibited cell proliferation
[1]; 10 uM
  % (A-Blank relative to control): 94.23%
  A-Blank (Average-Blank) O.D. at 570 nm: 0.7632 O.D.
  Average O.D. reading at 570 nm: 0.846 O.D.
[1]; 25 uM
  % (A-Blank relative to control): 97.16%
  A-Blank (Average-Blank) O.D. at 570 nm: 0.787 O.D.
  Average O.D. reading at 570 nm: 0.8698 O.D.
[1]; 50 uM
  % (A-Blank relative to control): 97.901%
  A-Blank (Average-Blank) O.D. at 570 nm: 0.793 O.D.
  Average O.D. reading at 570 nm: 0.8758 O.D.
[1]; 75 uM
  % (A-Blank relative to control): 98.827%
  A-Blank (Average-Blank) O.D. at 570 nm: 0.8005 O.D.
  Average O.D. reading at 570 nm: 0.8833 O.D.
[1]; 100 uM
  % (A-Blank relative to control): 95.71%
  A-Blank (Average-Blank) O.D. at 570 nm: 0.7753 O.D.
  Average O.D. reading at 570 nm: 0.858 O.D.
[1]; 200 uM
  % (A-Blank relative to control): 93.333%
  A-Blank (Average-Blank) O.D. at 570 nm: 0.756 O.D.
  Average O.D. reading at 570 nm: 0.8388 O.D.
[1]; 300 uM
  % (A-Blank relative to control): 84.9074%
  A-Blank (Average-Blank) O.D. at 570 nm: 0.6877 O.D.
  Average O.D. reading at 570 nm: 0.7705 O.D.
[1]; 500 uM
  % (A-Blank relative to control): 75.31%
  A-Blank (Average-Blank) O.D. at 570 nm: 0.61 O.D.
  Average O.D. reading at 570 nm: 0.6927 O.D.
[2]
  Inhibition of pyruvate kinase compared with BrPyA: inhibited pyruvate kinase at lower concentrations than BrPyA
[2]; Concentration 0.1 μM, read-out: % Inhibition
  inhibition at 0.1 µM: 0%
[2]; Concentration 1 μM, read-out: % Inhibition
  inhibition at 1 µM: 13.8%
[2]; Concentration 10 μM, read-out: % Inhibition
  inhibition at 10 µM: 28.6%
[3]
  Inhibition of cell proliferation: inhibited cell proliferation
[3]; 10 uM
  % (A-Blank relative to control): 100.1%
  A-Blank (Average-Blank) O.D. at 570 nm: 0.6935 O.D.
  Average O.D. reading at 570 nm: 0.7798 O.D.
[3]; 25 uM
  % (A-Blank relative to control): 102.02%
  A-Blank (Average-Blank) O.D. at 570 nm: 0.7068 O.D.
  Average O.D. reading at 570 nm: 0.793 O.D.
[3]; 50 uM
  % (A-Blank relative to control): 99.567%
  A-Blank (Average-Blank) O.D. at 570 nm: 0.6898 O.D.
  Average O.D. reading at 570 nm: 0.776 O.D.
[3]; 75 uM
  % (A-Blank relative to control): 100.11%
  A-Blank (Average-Blank) O.D. at 570 nm: 0.6935 O.D.
  Average O.D. reading at 570 nm: 0.7798 O.D.
[3]; 100 uM
  % (A-Blank relative to control): 95.453%
  A-Blank (Average-Blank) O.D. at 570 nm: 0.6613 O.D.
  Average O.D. reading at 570 nm: 0.7475 O.D.
[3]; 200 uM
  % (A-Blank relative to control): 90.978%
  A-Blank (Average-Blank) O.D. at 570 nm: 0.6303 O.D.
  Average O.D. reading at 570 nm: 0.7165 O.D.
[3]; 300 uM
  % (A-Blank relative to control): 79.7546%
  A-Blank (Average-Blank) O.D. at 570 nm: 0.5525 O.D.
  Average O.D. reading at 570 nm: 0.6388 O.D.
[3]; 500 uM
  % (A-Blank relative to control): 74.49%
  A-Blank (Average-Blank) O.D. at 570 nm: 0.516 O.D.
  Average O.D. reading at 570 nm: 0.6022 O.D.
